Our source for the IC50 values is US8841311B2, “Sulphone-substituted quinazoline derivatives as immuno-modulators, their preparation and use as medicaments” (Bayer Intellectual Property GmbH, priority 2008, dated 2014).

The IC50 is the concentration at which inhibition is half-maximal. Higher therefore signals a need for much substance.

This assay has as its system TLR-induced TNF-α release in human peripheral blood mononuclear cells (PBMC). In words: TLR-induced cytokine release in human PBMC (TNF-alpha, ELISA). The format is cell-based. Conditions: human PBMC stimulated with TLR ligand, 18 hours incubation. The protocol: TLR-Induced Cytokine Release in Human “Peripheral Blood Mononuclear Cells” (PBMC)
PBMCs isolated from human whole blood are stimulated using a TLR ligand.
The cytokine determination is carried out by means of ELISA kits; a proliferation/cell metabolism determination is carried out using Alamar Blue.
For the cell preparation, about 200 ml of blood are treated with an anticoagulant (e.g. citrate Monovettes). Per Leucosep tube, 15 ml of Histopaque (room temperature, RT) are poured in and pressed downwards through the frit employed by brief initial centrifugation (one minute at 1000×g, RT). 20 ml of blood are added to the tubes prepared in this way and centrifuged at 800×g for 15 minutes (RT). After centrifugation, the following layered arrangement results from the top to the bottom: plasma—PBMC Histopaque—filter disc—Histopaque—erythrocytes and granulocytes. The supernatant plasma is aspirated. The PBMC are transferred together with the underlying Histopaque to a new 50 ml tube, the contents of two Leucosep tubes always being added to one 50 ml tube. The 50 ml tubes are then filled to 50 ml with PBS. This cell suspension is centrifuged at 300×g (RT) for 10 minutes. The liquid supernatant is tipped off and the cell pellet is resuspended with a little PBS and subsequently filled to 50 ml with PBS. […] The metabolic activity of the treated cells is determined with the aid of Alamar Blue.
Background: In an ELISA, binding on a coated surface is turned into a signal by an enzyme label.

Molecule `COc1cc2c(NC(C)C)ncnc2cc1OCc1cccc(S(C)(=O)=O)c1` [Example 2.1, Isopropyl[7-(3-methanesulphonylbenzyloxy)-6-methoxyquinazolin-4-yl]amine] displayed a half-inhibitory concentration (IC50) of 3000 nM.
